Results published in patent US6878748B2, “Fluorinated cycloalkyl-derivatized benzoylguanidines, process for their preparation, their uses as medicament, and medicament containing them” (Aventis Pharma Deutschland GmbH, priority 2002, dated 2005).

Columns and labels:
human NHE-1 = biological target: T1, human NHE-1 (Homo sapiens, UniProt P19634); test: FLIPR assay for NHE-1 inhibition by measurement of the recovery in pHi in transfected cell lines; format: cell-based; settings: transfected LAP-1 cell line expressing human NHE-1, BCECF fluorescence, read-out: NHE1 inhibition IC50
T1 construct: expressed in transfected cells; host or cells: LAP-1 cells (parental line has no endogenous NHE activity), G418 selection
T1 sequence (P19634 whole entry): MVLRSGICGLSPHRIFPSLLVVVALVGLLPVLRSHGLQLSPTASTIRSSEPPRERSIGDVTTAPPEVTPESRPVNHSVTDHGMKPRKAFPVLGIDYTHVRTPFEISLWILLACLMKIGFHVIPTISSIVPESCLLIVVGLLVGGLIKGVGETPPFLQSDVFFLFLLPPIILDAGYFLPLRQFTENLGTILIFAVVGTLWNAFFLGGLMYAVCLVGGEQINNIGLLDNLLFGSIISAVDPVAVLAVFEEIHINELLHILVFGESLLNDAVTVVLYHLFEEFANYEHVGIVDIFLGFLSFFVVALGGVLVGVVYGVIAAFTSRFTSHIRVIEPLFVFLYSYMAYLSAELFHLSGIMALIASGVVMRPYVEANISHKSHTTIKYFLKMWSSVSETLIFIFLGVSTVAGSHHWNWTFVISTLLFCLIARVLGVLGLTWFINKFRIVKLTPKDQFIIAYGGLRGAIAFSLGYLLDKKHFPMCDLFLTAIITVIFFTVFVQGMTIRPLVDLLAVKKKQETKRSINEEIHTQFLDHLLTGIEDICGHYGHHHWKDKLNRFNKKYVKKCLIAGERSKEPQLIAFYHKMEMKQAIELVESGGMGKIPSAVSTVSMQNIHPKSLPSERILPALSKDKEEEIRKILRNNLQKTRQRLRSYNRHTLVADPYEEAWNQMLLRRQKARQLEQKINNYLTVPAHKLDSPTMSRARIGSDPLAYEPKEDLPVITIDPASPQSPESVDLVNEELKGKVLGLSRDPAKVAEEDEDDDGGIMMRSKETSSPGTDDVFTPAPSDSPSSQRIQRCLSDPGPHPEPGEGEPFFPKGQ
Procedure: The NHE-1 inhibition was determined as follows:
FLIPR assay for determining NHE-1 inhibitors by measurement of the recovery in pHi in transfected cell lines which express human NHE-1
The assay is carried out in an FLIPR (fluorescent imaging plate reader) with black-walled 96-well microtiter plates with clear bases.
(The growth medium for the transfected cells (Iscove +10% fetal calf serum) additionally contains G418 as selection antibiotic in order to ensure the presence of the transfected sequences.)
The actual assay starts with the removal of the growth medium and addition of 100 μl of loading buffer per well (5 μM BCECF-AM [2′,7′-bis(carboxyethyl)-5-(and -6)-carboxyfluorescein, acetoxymethyl ester] in 20 mM NH4Cl, 115 mM choline chloride, 1 mM MgCl2, 1 mM CaCl2, 5 mM KCl, 20 mM HEPES, 5 mM glucose; pH 7.4 [adjusted with KOH]). The cells are then incubated at 37° C. for 20 minutes. This incubation leads to loading of the cells with the fluorescent dye whose fluorescence intensity depends on pHi, and with NH4Cl, which makes the cells slightly alkaline. [The nonfluorescent dye precursor BCECF-AM is, -as ester, membrane-permeable. The actual dye BCECF, which is not membrane-permeable, is liberated inside cells by esterases.] […]

[H]/N=C(\N)NC(=O)c1cc(S(C)(=O)=O)c(OC2CC(F)(F)C2)cc1C [Example 1, N-[4-(3,3-Difluorocyclobutoxy)-5-methanesulfonyl-2-methylbenzoyl]guanidine]
IC50 (human NHE-1): 5.9 nM
melting point: 273 °C (dec.)
